Reference: patent US9539275B2, “Melanogenesis effect of saponins of gynostemma pentaphyllum” (Hong Kong Baptist University, priority 2014, dated 2017)

Key:
Type in all cases: cell-based, Mouse
tyrosinase [1] = assay: Tyrosinase activity assay in B16F10 cells; conditions: 5 μM H89 with GpS 50-100 μg/ml, 48 hours
Method: (§1) Cells were seeded in 96-well plates (3×10^3 cells/well) and allowed to adhere at 37° C. for 24 hours. Test samples were then added to individual wells. After 48 hours incubation, cells were washed with ice-cold PBS and 100 μl of 0.1% Triton X-100 lysis buffer were added into each well and lysed at −80° C. for 30 minutes. After freezing and thawing, 100 μl of freshly prepared substrate solution (0.1% L-DOPA) were added into a well on a 96-well plate. Following 2 hours incubation, the absorbance was determined at 475 nm with a microplate spectrophotometer (BD Bioscience, USA). Each percentage value of the drug-treated cells was calculated with respect to that of control cells. Each treatment was repeated three times.

B16F10 cells [2] = assay: MTT cell viability assay in B16F10 cells; conditions: H89 up to 5 μM, 48 hours
Method: (§2) Cell viabilities were determined using the MTT assay. Briefly, cells were seeded in 96-well plates (1×10^3 cells/well) and allowed to adhere at 37° C. for 24 hours. Various concentrations of drugs were then added. After 48 hours incubation, 20 μl of MTT solution (2.5 mg/ml in PBS) was added to each well and cells were incubated at 37° C. for 4 hours. Following medium removal, 100 μl of DMSO were added to each well and the plates were gently shaken for 5 minutes. Optical absorbance was determined at 570 nm with a microplate spectrophotometer (BD Bioscience, USA). Absorbance of cells without treatment was regarded as 100% of cell survival. Each treatment was performed in triplicate and each experiment was repeated three times.

CREB [3] = assay: Western blotting of p-CREB and CREB in B16 cells; conditions: 5 μM H89 in GpS-treated cells
Method: (§3) Cells were collected and total protein lysates were extracted with RIPA lysis buffer [50 mM Tris-Cl, 1% v/v NP-40, 0.35% w/v sodium-deoxycholate, 150 mM NaCl, 1 mM EDTA, 1 mM EGTA, 1 mM phenylmethylsulfonyl fluoride (PMSF), 1 mM NaF, 1 mM Na3VO4, pH adjusted to 7.4] containing a protease inhibitor cocktail (Roche, Germany) for 30 minutes on ice. After centrifugation at 20,800×g for 15 minutes at 4° C., the supernatant was collected and regarded as total cell lysates.
(§4) Protein concentration was determined by DC Protein Assay (Bio Rad, USA). A standard curve was created by bovine serum albumin (BSA) concentration 0, 0.375, 0.75 and 1.5 μg/μl for the determination of the absolute protein concentration. Then, the mixture of reagent A and reagent S (50:1) was mixed with 5 μl of protein lysate. Then 200 μl of reagent B were added and mixed with 10 minutes incubation at room temperature. Finally, the absorbance was determined at 700 nm with a microplate spectrophotometer (BD Bioscience, USA). […]
(§5) Membranes were blocked for 30 minutes with 3% Bovine Serum Albumin in TBST buffer composed of 50 mM Tris (pH 7.6), 150 mM NaCl and 0.1% Tween-20 and incubated with the primary antibody overnight at 4° C. GADPH was used as loading control and was detected using an anti-GADPH polyclonal antibody (Santa cruz Biotechnology). […]

CREB [4] = assay: Western blotting of p-CREB and CREB in B16F10 cells; conditions: 5 μM H89 in GpS-treated cells
Method: as §3, §4, §5

B16 cells [5] = assay: MTT cell viability assay in B16 cells; conditions: H89 up to 5 μM, 48 hours
Method: as §2

B16 cells [6] = assay: Colour of culture medium (extracellular melanin) and cell pellets, B16 cells
Method: (§6) The PKA signaling pathway is known to take part in regulating melanogenic events. […] To further investigate the involvement of the PKA pathway in the induction of the melanogenic effect of GpS in B16 and B6F10 cells, a PKA inhibitor, H89, is employed. […] Cells are treated with GpS in the presence or absence of H89 inhibitor. […] H89 treatment effectively lightens the color of the culture medium as well as the cell pellets.

tyrosinase [7] = assay: Tyrosinase activity assay in B16 cells; conditions: 5 μM H89 with GpS 50-150 μg/ml, 48 hours
Method: as §1

B16 cells [8] = assay: Measurement of cellular melanin contents in B16 cells; conditions: 5 μM H89 with GpS 50-150 μg/ml, 48 hours
Method: (§7) Cells were seeded in a 60 mm dish (2×10^5 cells/dish) and allowed to adhere at 37° C. for 24 hours. After adding test samples, cells were incubated for 48 hours and then washed with PBS and lysed in 120 μl of 1 M NaOH followed by 10 minutes of heating at 100° C. to solubilize the melanin. Each lysate (100 μl) was added into a well of a 96-well microplate, and the absorbance was determined at 475 nm with a microplate spectrophotometer (BD Bioscience, USA). The protein concentration of each sample was determined by DC Protein Assay (BIO-RAD, USA). Each experiment was repeated three times. The intracellular melanin amount/protein amount was shown as percentage values. Each percentage value of the drug-treated cells was calculated with respect to that of control cells.

B16F10 cells [9] = assay: Colour of culture medium (extracellular melanin) and cell pellets, B16F10 cells
Method: as §6

B16F10 cells [10] = assay: Measurement of cellular melanin contents in B16F10 cells; conditions: 5 μM H89 with GpS 50-100 μg/ml, 48 hours
Method: as §7

[11] = co-treated with 5 μM H89 and GpS, compared with GpS-treated cells

SMILES: O=S(=O)(NCCNC/C=C/c1ccc(Br)cc1)c1cccc2cnccc12 [H89]
- GpS-induced increment of cellular tyrosinase activity (tyrosinase [1]): significantly attenuated
- cytotoxicity (MTT) (B16F10 cells [2]): no cytotoxicity
- GpS-induced p-CREB expression (CREB [3]): significantly attenuates
- total CREB expression (CREB [3]): without significant influence
- GpS-induced p-CREB expression (CREB [4]): significantly attenuates
- total CREB expression (CREB [4]): without significant influence
- cytotoxicity (MTT) (B16 cells [5]): no cytotoxicity
- colour of cell pellets (B16 cells [6]; [11]): lighter in color
- secretion of melanin induced by GpS (B16 cells [6]; co-treatment with H89): attenuated
- GpS-induced increment of cellular tyrosinase activity (tyrosinase [7]): significantly attenuated
- GpS-induced increment of melanin content (B16 cells [8]): significantly attenuated
- colour of cell pellets (B16F10 cells [9]; [11]): lighter in color
- secretion of melanin induced by GpS (B16F10 cells [9]; co-treatment with H89): attenuated
- GpS-induced increment of melanin content (B16F10 cells [10]): significantly attenuated
